Measurements from PubChem BioAssay AID330 (DTP/NCI, 2004).
Several values for one entry are separate records, joined by “and”; a condition that tells them apart may be missing. Identical values can stand only once. Toxic doses and inconclusive results are not listed. Square brackets hold non-standard residues; d marks the D form. Peptide text beside a SMILES is read from it. ξ: configuration not given here. ξAbu = CCC(N)C(=O)O

Test system: P388 leukemia ip, CD2F1 mice, survival T/C
Test: NCI In Vivo Anticancer Drug Screen. Data for tumor model P388 Leukemia (intraperitoneal) in CD2F1 (CDF1) mice
Settings: endpoint: median survival time, higher = longer survival
Procedure, shortened: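 Mice carrying the transplanted tumor received test compound or vehicle. Survival was recorded in each group, and the value is the treated-group measurement divided by that of the vehicle-treated control group.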

[1] = dose: 60.0 mg/kg/injection, schedule: Q01DX005 (ip), vehicle: saline with Tween-80
[2] = dose: 120.0 mg/kg/injection, schedule: Q01DX005 (ip), vehicle: saline with Tween-80
[3] = dose: 240.0 mg/kg/injection, schedule: Q01DX005 (ip), vehicle: saline with Tween-80
[4] = dose: 50.0 mg/kg/injection, schedule: Q01DX005 (ip), vehicle: saline
[5] = dose: 100.0 mg/kg/injection, schedule: Q01DX005 (ip), vehicle: saline
[6] = dose: 200.0 mg/kg/injection, schedule: Q01DX005 (ip), vehicle: saline
[7] = dose: 100.0 mg/kg/injection, schedule: Q01DX001 (ip), vehicle: saline
[8] = dose: 50.0 mg/kg/injection, schedule: Q01DX009 (ip), vehicle: saline with Tween-80
[9] = dose: 100.0 mg/kg/injection, schedule: Q01DX009 (ip), vehicle: saline with Tween-80
[10] = dose: 200.0 mg/kg/injection, schedule: Q01DX009 (ip), vehicle: saline with Tween-80
[11] = dose: 12.5 mg/kg/injection, schedule: Q01DX005 (ip), vehicle: Klucel (hydroxypropylcellulose) (HPC)
[12] = dose: 60.0 mg/kg/injection, schedule: Q01DX005 (ip), vehicle: Klucel (hydroxypropylcellulose) (HPC)
[13] = dose: 120.0 mg/kg/injection, schedule: Q01DX005 (ip), vehicle: Klucel (hydroxypropylcellulose) (HPC)
[14] = dose: 240.0 mg/kg/injection, schedule: Q01DX005 (ip), vehicle: Klucel (hydroxypropylcellulose) (HPC)
[15] = dose: 50.0 mg/kg/injection, schedule: Q01DX005 (ip), vehicle: Klucel (hydroxypropylcellulose) (HPC)
[16] = dose: 100.0 mg/kg/injection, schedule: Q01DX005 (ip), vehicle: Klucel (hydroxypropylcellulose) (HPC)
[17] = dose: 50.0 mg/kg/injection, schedule: Q01DX009 (ip), vehicle: saline
[18] = dose: 100.0 mg/kg/injection, schedule: Q01DX009 (ip), vehicle: saline
[19] = dose: 200.0 mg/kg/injection, schedule: Q01DX009 (ip), vehicle: saline
[20] = dose: 50.0 mg/kg/injection, schedule: Q01DX009 (ip), vehicle: Klucel (hydroxypropylcellulose) (HPC)
[21] = dose: 100.0 mg/kg/injection, schedule: Q01DX009 (ip), vehicle: Klucel (hydroxypropylcellulose) (HPC)
[22] = dose: 200.0 mg/kg/injection, schedule: Q01DX009 (ip), vehicle: Klucel (hydroxypropylcellulose) (HPC)

CCOC(=O)c1c(C(=O)OCC)c2cccn2c2c1cnn2-c1ccccc1
T/C [1]: 99 % of control | T/C [2]: 93 % of control | T/C [3]: 91 % of control

NC(COC(c1ccccc1)(c1ccccc1)c1ccccc1)C(=O)O (stereo not drawn)
T/C (dose: 100.0 mg/kg/injection, schedule: Q04DX003 (ip), vehicle: saline): 118 % of control | T/C (dose: 200.0 mg/kg/injection, schedule: Q04DX003 (ip), vehicle: saline): 154 % of control

C=C(C)C(=O)Nc1ccc(NS(=O)(=O)c2ccc(C(C)CC)cc2)c(O)c1 (stereo not drawn)
T/C (dose: 50.0 mg/kg/injection, schedule: Q01DX009 (ip), vehicle: saline + alcohol): 101 % of control | T/C (dose: 100.0 mg/kg/injection, schedule: Q01DX009 (ip), vehicle: saline + alcohol): 106 % of control | T/C (dose: 200.0 mg/kg/injection, schedule: Q01DX009 (ip), vehicle: saline + alcohol): 106 % of control

NC(=O)NCP(=O)(CNC(N)=O)CNC(N)=O
T/C [4]: 100 % of control | T/C [5]: 97 % of control | T/C [6]: 95 % of control

OC1CC2CCC(C1)N2c1ccccc1 (stereo not drawn)
T/C [4]: 115 % of control | T/C [5]: 97 % of control

O=c1c2cc(O)c(O)cc2oc2cc(O)c(C3OC(CO)C(O)C(O)C3O)c(O)c12 (stereo not drawn)
T/C [7]: 101 % of control | T/C (dose: 400.0 mg/kg/injection, schedule: Q01DX001 (ip), vehicle: saline): 101 % of control

CCOC(=O)c1ccc(NCCC(C)=O)cc1
T/C [8]: 91 % of control | T/C [9]: 86 % of control | T/C [10]: 91 % of control | T/C (dose: 400.0 mg/kg/injection, schedule: Q01DX009 (ip), vehicle: saline with Tween-80): 95 % of control

O=C1C(Br)=C(O)C(c2ccccc2)N1c1ccccc1 (stereo not drawn)
T/C [1]: 110 % of control | T/C [2]: 94 % of control | T/C [3]: 113 % of control

Cc1ccc(S(=O)(=O)CCCCS(=O)(=O)c2ccc(C)cc2)cc1
T/C [1]: 107 % of control | T/C [2]: 104 % of control | T/C [3]: 97 % of control

COc1cccc2nncn12
T/C (dose: 50.0 mg/kg/injection, schedule: Q01DX001 (ip), vehicle: saline): 100 % of control | T/C [7]: 100 % of control | T/C (dose: 200.0 mg/kg/injection, schedule: Q01DX001 (ip), vehicle: saline): 100 % of control

CC(C)Sc1nc(NC(=O)N(CCCl)N=O)cc(=O)[nH]1
T/C [11]: 152 % of control

CCOC(CCC(CO)CO)OCC
T/C (dose: 50.0 mg/kg/injection, schedule: Q01DX009 (ip), vehicle: suspension in saline): 108 % of control | T/C (dose: 100.0 mg/kg/injection, schedule: Q01DX009 (ip), vehicle: suspension in saline): 112 % of control | T/C (dose: 200.0 mg/kg/injection, schedule: Q01DX009 (ip), vehicle: suspension in saline): 96 % of control

Nc1nnc2nc(CC(=O)/C=C/c3ccccc3)/c(=C/C(=O)/C=C/c3ccccc3)n12
T/C (dose: 100.0 mg/kg/injection, schedule: Q04DX002 (ip), vehicle: saline with Tween-80): 104 % of control | T/C (dose: 200.0 mg/kg/injection, schedule: Q04DX002 (ip), vehicle: saline with Tween-80): 107 % of control | T/C (dose: 400.0 mg/kg/injection, schedule: Q04DX002 (ip), vehicle: saline with Tween-80): 100 % of control

O=C(Nc1ncnc2nc(-c3ccccc3)[nH]c12)c1ccccc1
T/C [12]: 107 % of control | T/C [13]: 95 % of control | T/C [14]: 95 % of control

Cc1ccnc(NC2=CC(=O)C(=O)c3ccccc32)c1
T/C (dose: 37.5 mg/kg/injection, schedule: Q01DX009 (ip), vehicle: saline sonified): 122 % of control

CC(=O)Nc1ccc(Cl)cc1C(Cl)c1ccccc1 (stereo not drawn)
T/C [11]: 109 % of control | T/C (dose: 25.0 mg/kg/injection, schedule: Q01DX005 (ip), vehicle: Klucel (hydroxypropylcellulose) (HPC)): 118 % of control | T/C [15]: 123 % of control and 124 % of control | T/C [16]: 115 % of control

CC(=O)N(O)c1ccc(C(N)=O)cc1
T/C [17]: 99 % of control | T/C [18]: 106 % of control | T/C [19]: 106 % of control

C=C1C(=O)O[C@@H]2C[C@@]3(C)CCC[C@H](C)C3=C[C@H]12 (tested in a mixture with another compound)
T/C (dose: 7.5 mg/kg/injection, schedule: Q01DX005 (ip), vehicle: saline + alcohol): 93 % of control | T/C (dose: 15.0 mg/kg/injection, schedule: Q01DX005 (ip), vehicle: saline + alcohol): 94 % of control | T/C (dose: 30.0 mg/kg/injection, schedule: Q01DX005 (ip), vehicle: saline + alcohol): 103 % of control | T/C (dose: 60.0 mg/kg/injection, schedule: Q01DX005 (ip), vehicle: saline + alcohol): 100 % of control | T/C (dose: 120.0 mg/kg/injection, schedule: Q01DX005 (ip), vehicle: saline + alcohol): 104 % of control

O=C1C(=O)c2ccc3c(c2-c2cc4c(cc21)OCO4)OCO3
T/C [12]: 86 % of control | T/C [13]: 87 % of control

CC1(C)C2C=CC(OC2=O)C1(C)NC(=O)OCc1ccccc1 (stereo not drawn)
T/C [17]: 96 % of control | T/C [18]: 98 % of control | T/C [19]: 99 % of control

N#Cc1cc(Cl)ccc1N=Cc1c(Cl)cccc1Cl
T/C [20]: 100 % of control | T/C [21]: 105 % of control | T/C [22]: 100 % of control

Clc1cccc(NN=Nc2ccccc2)c1
T/C [20]: 104 % of control | T/C [21]: 96 % of control | T/C [22]: 103 % of control

CCOC(=O)C1Cc2c([nH]c(=O)[nH]c2=O)OC1(C)c1ccccc1 (stereo not drawn)
T/C [15]: 103 % of control | T/C [16]: 98 % of control | T/C (dose: 200.0 mg/kg/injection, schedule: Q01DX005 (ip), vehicle: Klucel (hydroxypropylcellulose) (HPC)): 97 % of control

CCOCc1cn[nH]n1
T/C (dose: 60.0 mg/kg/injection, schedule: Q01DX005 (ip), vehicle: saline): 100 % of control | T/C (dose: 120.0 mg/kg/injection, schedule: Q01DX005 (ip), vehicle: saline): 100 % of control | T/C (dose: 240.0 mg/kg/injection, schedule: Q01DX005 (ip), vehicle: saline): 104 % of control

CCCCCCCCCCCCCCCCOc1ccc(C(=O)CC(=O)OC)cc1
T/C (dose: 50.0 mg/kg/injection, schedule: Q01DX009 (ip), vehicle: other): 103 % of control | T/C (dose: 100.0 mg/kg/injection, schedule: Q01DX009 (ip), vehicle: other): 100 % of control | T/C (dose: 200.0 mg/kg/injection, schedule: Q01DX009 (ip), vehicle: other): 95 % of control | T/C (dose: 400.0 mg/kg/injection, schedule: Q01DX009 (ip), vehicle: other): 87 % of control

CC(C)CC(N)C(=O)NC(Cc1cc2ccccc2[nH]1)C(=O)O (stereo not drawn)
T/C [8]: 101 % of control | T/C [9]: 107 % of control | T/C [10]: 104 % of control

CCOC(=O)/C=C/C(=O)N1CCN(C(=O)/C=C/C(=O)OCC)C(C)C1 (stereo not drawn)
T/C [15]: 113 % of control | T/C (dose: 90.0 mg/kg/injection, schedule: Q01DX005 (ip), vehicle: Klucel (hydroxypropylcellulose) (HPC)): 108 % of control | T/C [16]: 116 % of control | T/C (dose: 133.0 mg/kg/injection, schedule: Q01DX005 (ip), vehicle: Klucel (hydroxypropylcellulose) (HPC)): 112 % of control

CCC(N)C(=O)NCC(=O)NCC(=O)O (stereo not drawn) (H-[ξAbu]-Gly-Gly-OH)
T/C [4]: 103 % of control | T/C [5]: 103 % of control | T/C [6]: 103 % of control

O=C(Nc1c(Cl)cccc1Cl)OCc1ccc2c(c1)OCO2
T/C [12]: 92 % of control | T/C [13]: 90 % of control | T/C [14]: 90 % of control

O=Cc1ccc([N+](=O)[O-])[nH]1
T/C (dose: 12.5 mg/kg/injection, schedule: Q01DX009 (ip), vehicle: saline with Tween-80): 92 % of control | T/C (dose: 25.0 mg/kg/injection, schedule: Q01DX009 (ip), vehicle: saline with Tween-80): 87 % of control | T/C [8]: 92 % of control | T/C [9]: 86 % of control

COc1ccc2c(c1)OC(C)(C)C(c1ccccc1)C2c1ccc(O)c([N+](=O)[O-])c1 (stereo not drawn)
T/C [15]: 109 % of control | T/C [16]: 101 % of control

O=[C-]C(F)(F)F.[C-]#[O+].[C-]#[O+].[C-]#[O+].[C-]#[O+].[C-]#[O+].[Mn]
T/C (dose: 50.0 mg/kg/injection, schedule: Q01DX001 (ip), vehicle: other): 100 % of control | T/C (dose: 100.0 mg/kg/injection, schedule: Q01DX001 (ip), vehicle: other): 100 % of control
